Measured values as given in US10100030B2 (Kissei Pharmaceutical Co., Ltd., priority 2013, dated 2018).

How the values were obtained:
human NK1 receptor = human NK1 receptor (Homo sapiens (Human), UniProt P25103); assay: Inhibitory effect on human NK1 receptor (substance P-induced increase in intracellular calcium concentration); type: cell-based; details: HEK-293T; substance P 1 μM, compound 0.1 μM; human NK1 receptor-expressing 293T cells; read-out: SPRR (Substance P-Response Remaining)
Method: Inhibitory Effect on Human NK1 Receptor
(1) Preparation of Human NK1 Receptor-expressing Cells
Human NK1 receptor-expressing cells were prepared by the same methods as those described in 2-3 and 2-4 of Test Example 1.
(2) Study on Inhibitory Effect on Increase in Intracellular Calcium Concentration
The human NK1 receptor-expressing cells were washed with 300 μL/well of a washing solution (20 mM HEPES/Hank's Balanced Salt Solution (HBSS) […]). A fluorescent calcium indicator (Fluo-4 Direct Calcium Assay Kit, Life Technologies, containing 0.42 mM probenecid and 0.1% bovine serum albumin, prepared according to the protocol of the product) was added to the wells at 150 μL/well, and the plate was incubated at 37° C. for 30 minutes in an incubator. Then, DMSO solutions of a test compound, which were prepared at an 80-time higher concentration using 100% dimethyl sulfoxide (DMSO), were added to the wells at 2.5 μL/well (final concentrations of 0.1, 1 and 10 μM), and the solutions were mixed. Then, the plate was further incubated at 37° C. for 30 minutes in an incubator. After 30 minutes, the intracellular calcium concentrations were measured immediately.
The intracellular calcium concentrations were each measured as a fluorescent signal using FDSS (registered trademark) 7000 (Hamamatsu Photonics). A substance P (Peptide Institute, Inc.) solution which was prepared at 0.4 μM or 4 μM using an assay buffer (20 mM HEPES/Hank's Balanced Salt Solution (HBSS) pH 7.3, containing 0.1% bovine serum albumin) was added automatically to each well at 50 μL/well (final concentration of 0.1 or 1 μM) 10 seconds after starting reading, and the fluorescent signal was measured up to 120 seconds.
The intracellular calcium concentration (%) of the cells to which a test compound was added was calculated by the equation below, where the fluorescent signal of the group to which the vehicle (DMSO) was added was regarded as 100%, and the fluorescent signal before the addition of substance P was regarded as 0%. Intracellular calcium concentration(%)=(Fluorescent signal of test compound addition group)/(Fluorescent signal of vehicle addition group)×100
The intracellular calcium concentration (%) calculated was regarded as the remaining agonist activity of substance P (Substance P-Response Remaining: SPRR). In the table, Ex. No. means the Example number. SPRR (%) is the value obtained when the concentration of substance P was 1 μM and the concentration of the compound was 0.1 μM.

[1] = test system: cisplatin-induced acute and delayed emetic response; assay: Effect on cisplatin-induced acute and delayed emetic response; type: in vivo, ferret
Method: No 1, 1 mg/kg, po) in the acute phase, and a value of control group, the group intravenously administered with 3 mg/kg of the compound of Example 1 (Ex. […] No 1, 1 mg/kg, po) in the delayed phase from the left respectively. The vertical axes show the number of retching and vomiting ([…]) (the mean+standard error of 5 examples of control group, the mean+standard error of 5 examples of the group intravenously administered, and the mean+standard error of 5 examples of the group orally administered). Effect on Cisplatin-induced Acute and Delayed Emetic Response The test compound solution was prepared by dissolving the test compound in a vehicle (a mixture of 50% N,N-dimethylformamide (Wako Pure Chemical Industries), 30% propylene glycol (Wako Pure Chemical Industries) and 4% 2-hydroxypropyl-β-cyclodextrin (Wako Pure Chemical Industries)). The vehicle only was administered to the control group. Under anesthesia with isoflurane, 3 mg/kg of the test compound was intravenously administered to a male ferret (Marshall BioResources Japan) from the jugular vein. Cisplatin, which was heated to 40-50° C., was intraperitoneally administered at 5 mg/kg one hour after the drug administration. […] The solvent only was administered to the control group. The test compound was orally administered to a male ferret (Marshall BioResources Japan). The oral administration was performed every 24 hours at 1 mg/kg three times in total. Cisplatin, which was heated to 40-50° C., was intraperitoneally administered at 5 mg/kg one hour after the first oral administration of the test compound.

[2] = Ferret pharmacokinetic test; type: in vivo; details: plasma, male ferret
Method: Ferret Pharmacokinetic Test
The test compound solution was prepared by dissolving the test compound in a vehicle (50% N,N-dimethylformamide (Wako Pure Chemical Industries), 30% propylene glycol (Wako Pure Chemical Industries) and 4% 2-hydroxypropyl-β-cyclodextrin (Wako Pure Chemical Industries)). Under anesthesia with isoflurane 0.3 mg/kg of the test compound was intravenously administered to a male ferret (Marshall BioResources Japan) from the jugular vein. In the case of oral administration, 1 mg/kg of the test compound was orally administered to an awake animal. After the administration of the test compound, blood samples were taken sequentially from the brachial cephalic vein, and the concentrations of the test compound in the plasma were measured by a quantitative analysis using liquid chromatography-mass spectrometry (LC/MS).
In the tables, Ex. No. means the Example number. CLtot and Vss are the total body clearance and the steady-state volume of distribution, based on the plasma concentrations in the case of intravenous administration, respectively, Cmax, AUC and BA are the maximum plasma test compound concentration, the area under the plasma test compound concentration-time curve and the bioavailability, in the case of oral administration, respectively, […]

Sequence of human NK1 receptor (P25103 whole entry): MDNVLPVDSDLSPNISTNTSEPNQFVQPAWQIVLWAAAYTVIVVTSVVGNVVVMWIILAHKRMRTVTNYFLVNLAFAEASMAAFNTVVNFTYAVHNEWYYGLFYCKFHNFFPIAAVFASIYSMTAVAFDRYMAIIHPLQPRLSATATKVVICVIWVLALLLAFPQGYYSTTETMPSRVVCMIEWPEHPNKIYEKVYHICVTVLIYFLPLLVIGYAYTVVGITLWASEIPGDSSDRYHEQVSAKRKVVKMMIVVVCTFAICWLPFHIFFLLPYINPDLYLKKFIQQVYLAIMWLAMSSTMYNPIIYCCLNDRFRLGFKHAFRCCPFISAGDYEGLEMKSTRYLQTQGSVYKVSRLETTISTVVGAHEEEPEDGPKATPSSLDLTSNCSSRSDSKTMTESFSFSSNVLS

remaining activity at 0.1 µM (human NK1 receptor): 28%
clearance ([2]; 0.3 mg/kg intravenous, read-out: CLtot (total body clearance)): 0.75 mL/min/kg
Vd ([2]; 0.3 mg/kg intravenous, read-out: Vss (steady-state volume of distribution)): 0.336 L/kg
bioavailability ([2]; 1 mg/kg oral, read-out: BA (bioavailability)): 61%
Cmax ([2]; 1 mg/kg oral, read-out: Cmax (maximum plasma test compound concentration)): 1270 ng/mL
SMILES: Cc1cc(F)ccc1-c1cc(N2CCC(CC(=O)O)CC2)ncc1N(C)C(=O)C(C)(C)c1cc(C(F)(F)F)cc(C(F)(F)F)c1 [Example 1]
number of retching and vomiting ([1]; 1 mg/kg po every 24 hours three times, acute phase (up to 24 hours after cisplatin)): inhibition of the number of retching and vomiting was observed
number of retching and vomiting ([1]; 1 mg/kg po every 24 hours three times, delayed phase (24 to 72 hours after cisplatin)): inhibition of the number of retching and vomiting was observed
number of retching and vomiting ([1]; 3 mg/kg iv, acute phase (up to 24 hours after cisplatin)): inhibition of the number of retching and vomiting was observed
number of retching and vomiting ([1]; 3 mg/kg iv, delayed phase (24 to 72 hours after cisplatin)): inhibition of the number of retching and vomiting was observed
